The values below are quoted from earlier work in patent US11779012B2, “Compositions and methods for preserving red blood cells and platelets” (RythRx Therapeutics, LLC, priority 2013, dated 2023).

Data set [1] concerns the target pleckstrin homology (PH) domain of Akt (Homo sapiens, UniProt P31749). Conditions: binding to PH domain of Akt.
The conditions of data set [2]: after intravenous administration.

pleckstrin homology (PH) domain of Akt, sequence (P31749 5-108 limits assumed): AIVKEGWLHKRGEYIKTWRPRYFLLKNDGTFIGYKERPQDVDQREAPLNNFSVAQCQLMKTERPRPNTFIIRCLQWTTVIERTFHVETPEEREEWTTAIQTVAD

Consider `CN1N=C(N)c2cn([C@@H]3O[C@H](COP(=O)(O)O)[C@@H](O)[C@H]3O)c3ncnc1c23` [TCNP, ((2R,3S,4R,5R)-5-(3-amino-5-methyl-1,4,5,6,8-pentaazaacenaphthylen-1(5H)-yl)-3,4-dihydroxytetrahydrofuran-2-yl)methyl dihydrogen phosphate], for which the Kd (in general, a measure of binding affinity in units of concentration) in data set [1] was 690 nM. The “half-life (retention of TCNP in human RBC)” value in data set [2] is 89 h.
